Here are results for 17 molecules from patent US7214712B2, “Isophthalic acid derivatives as matrix metalloproteinase inhibitors” (Warner-Lambert Company, priority 2001, dated 2007).

pIC50: −log10 of the molar value.

The target of series [1] is MMP-3CD (catalytic domain of stromelysin-1) (Homo sapiens, UniProt P08254). The experiment in a line: Thiopeptolide substrate hydrolysis assay, MMP-3CD. In kind it is biochemical. The conditions noted are these: 50 mM MES pH 6.0. The procedure: It should be appreciated that the assay buffer used with MMP-3CD was 50 mM N-morpholinoethanesulfonate (“MES”) at pH 6.0 rather than the HEPES buffer at pH 7.0 described above.

In series [2] the target is T1, MMP-1FL (full length interstitial collagenase) (Homo sapiens, UniProt P03956).
T1 sequence (P03956 100-469): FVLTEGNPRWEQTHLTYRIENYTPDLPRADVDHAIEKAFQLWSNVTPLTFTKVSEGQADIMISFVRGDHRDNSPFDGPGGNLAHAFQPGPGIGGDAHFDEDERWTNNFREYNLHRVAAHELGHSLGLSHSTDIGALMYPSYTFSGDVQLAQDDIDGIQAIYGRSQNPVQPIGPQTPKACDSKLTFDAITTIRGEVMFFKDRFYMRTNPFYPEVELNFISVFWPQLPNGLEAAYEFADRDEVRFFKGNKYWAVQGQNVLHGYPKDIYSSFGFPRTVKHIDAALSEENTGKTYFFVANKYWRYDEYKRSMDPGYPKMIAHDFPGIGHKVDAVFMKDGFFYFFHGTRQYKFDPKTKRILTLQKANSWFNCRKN
Briefly: Thiopeptolide substrate hydrolysis assay, MMP-1FL. The format is biochemical. As to conditions: HEPES pH 7.0, 22° C. From the text:
Several representative compounds have been evaluated for their ability to inhibit various matrix metalloproteinase enzymes.

The target of series [3] is MMP-13CD (catalytic domain of collagenase-3) (Homo sapiens, UniProt P45452). Briefly: Thiopeptolide substrate hydrolysis assay, MMP-13CD. As to conditions: HEPES pH 7.0, 22° C. In kind it is biochemical.
Description: The assays measure the amount by which a test compound reduces the hydrolysis of a thiopeptolide substrate caused by a matrix metalloproteinase enzyme.
Thiopeptolide substrates show virtually no decomposition or hydrolysis in the absence of a matrix metalloproteinase enzyme. A typical thiopeptolide substrate commonly utilized for assays is Ac-Pro-Leu-Gly-thioester-Leu-Leu-Gly-OEt. A 100-μL assay mixture will contain 50 mM of N-2-hydroxyethylpiperazine-N′-2-ethanesulfonic acid (“HEPES,” pH 7.0), 10 mM CaCl2, 100 μM thiopeptolide substrate, and 1 mM 5,5′-dithio-bis-(2-nitro-benzoic acid) (DTNB). […] Assays are carried out with and without matrix metalloproteinase inhibitor compounds, and the amount of hydrolysis is compared for a determination of inhibitory activity of the test compounds.

Chain of MMP-3CD (catalytic domain of stromelysin-1) (P08254 100-272 limits assumed): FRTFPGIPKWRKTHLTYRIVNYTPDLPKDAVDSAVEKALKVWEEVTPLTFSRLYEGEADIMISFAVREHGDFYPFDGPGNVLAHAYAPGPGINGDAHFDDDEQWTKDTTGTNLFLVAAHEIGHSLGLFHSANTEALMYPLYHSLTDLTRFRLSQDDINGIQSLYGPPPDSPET

One may read the melting point as the temperature, or range, at which the solid turns liquid. Take `O=C(OCc1cccc(F)c1)c1cccc(C(=O)OCc2cccc(F)c2)c1` [Example 11, Isophthalic acid bis-(3-fluoro-benzyl) ester]: the melting point lay within 81 to 82 °C.
As a reminder, the pIC50 is the negative decadic logarithm of the IC50, by convention in mol/L. Read a low pIC50 as a high IC50. As to `CCOc1ccc(C(=O)NCc2cccc(OC)c2)cc1C(=O)NCc1cccc(OC)c1` [Example 64, 4-Ethoxy-N′1,N″3-bis-(3-methoxy-benzyl)-isophthalamide], the pIC50 in series [1] and in series [2] was under 4.00 in each case.
As to `COc1cccc(CNC(=O)c2cccc(C(=O)NCc3cccc(OC)c3)c2)c1` [Example 30, N,N′-Bis-(3-methoxy-benzyl)-isophthalamide], the negative logarithm of the IC50 (pIC50) in series [1] and in series [2] was under 4.00 throughout.
With “N,N′-Bis-(4-methoxy-benzyl)-isophthalamide [Example 39]”, the pIC50 in series [3] is 5.56; in series [1], under 4.00; in series [2], under 4.00.
`O=C(NCc1cccc(F)c1)c1cccc(C(=O)NCc2cccc(F)c2)c1` [Example 17, N,N′-Bis-(3-fluoro-benzyl)-isophthalamide] came in with a melting point of 138 to 140 °C.
On the same count and under the same terms, to `O=C(NCc1cccc(Cl)c1)c1cccc(C(=O)NCc2cccc(Cl)c2)c1` [Example 18, N,N′-Bis-(3-chloro-benzyl)-isophthalamide] belongs 128 to 130 °C.
On to `COc1ccc(C(=O)OCc2ccc3nsnc3c2)cc1C(=O)OCc1ccc2nsnc2c1` [Example 69, 4-Methoxy-isophthalic acid di-2,1,3-benzothiadiazol-5-ylmethyl ester], for which the pIC50 in series [2] was 4.52.
Take `O=C(OCc1ccc2c(c1)OCO2)c1cccc(C(=O)OCc2ccc3c(c2)OCO3)c1` [Example 14, Isophthalic acid bis-(1,3-benzodioxol-5-ylmethyl) ester]: the melting point fell in the range of 109 to 110 °C.
With “4-Methoxy-N,N′-bis-(4-methoxy-benzyl)-isophthalamide [Example 24]”, the negative logarithm of the IC50 (pIC50) in series [3] is 6.55; in series [1] it was under 4.00; in series [2], under 4.00.
With `COc1ccc(COC(=O)c2cccc(C(=O)OCc3ccc(OC)cc3)c2)cc1` [Example 12, Isophthalic acid bis-(4-methoxy-benzyl) ester], the melting point fell in the range of 90 to 92 °C.
Take `COc1ccc(C(=O)OCc2ccncc2)cc1C(=O)OCc1ccncc1` [Example 5, 4-Methoxy-isophthalic acid dipyridin-4-ylmethyl ester]: the pIC50 in series [3] is 6.59; in series [1], under 4.00; in series [2], under 4.00.
On to `O=C(NCc1ccc(Cl)cc1)c1cccc(C(=O)NCc2ccc(Cl)cc2)c1` [Example 10, N,N′-Bis-(4-chloro-benzyl)-isophthalamide], for which the melting point lay within 136 to 138 °C.
`O=C(NCc1ccc2c(c1)OCO2)c1cccc(C(=O)NCc2ccc3c(c2)OCO3)c1` [Example 19, N,N′-Bis-1,3-benzodioxol-5-ylmethyl-isophthalamide] gave a pIC50 in series [2] of under 4.00.
For `COc1cccc(COC(=O)c2cccc(C(=O)OCc3cccc(OC)c3)c2)c1` [Example 13, Isophthalic acid bis-(3-methoxy-benzyl) ester], the melting point lay in the range of 68 to 70 °C.
With `O=C(NCc1ccc2c(c1)OCO2)c1cccc(C(=O)NCc2ccc3c(c2)OCO3)c1` [Example 28, N,N′-Bis-1,3-benzodioxol-5-ylmethyl-isophthalamide], in series [2], the pIC50 is under 4.00.
`O=C(OCc1ccc2nsnc2c1)c1cccc(C(=O)OCc2ccc3nsnc3c2)c1` [Example 3, Isophthalic acid di-(2,1,3-benzothiadiazol-5-yl)methyl ester]: the negative logarithm of the IC50 (pIC50) is under 4.52 in series [1] and under 4.00 in series [2].
In turn, `COc1ccc(CNC(=O)c2cccc(C(=O)NCc3ccc(OC)cc3)c2)cc1` [Example 16, N,N′-Bis-(4-methoxy-benzyl)-isophthalamide] registered a melting point of 175 to 176 °C.
